Experimental data taken from PubChem BioAssay AID248 (DTP/NCI, 2004).
Values joined by “and” are separate entries in the source; they are usually repeats but may differ in a detail not shown here. Equal values may be shown once. Inconclusive results and toxic doses are left out.

Test system: L1210 leukemia ip in BDF1 mice, survival T/C
Assay: NCI In Vivo Anticancer Drug Screen. Data for tumor model L1210 Leukemia (intraperitoneal) in B6D2F1 (BDF1) mice
Conditions: endpoint: mean survival time, higher = longer survival
Method in brief: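 Tumor cells were implanted, animals were treated, and survival was followed. The result divides the treated measurement by the vehicle-control measurement.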

[1] = dose: 100.0 mg/kg/injection, schedule: Q04DX003 (ip), vehicle: saline with Tween-80
[2] = dose: 25.0 mg/kg/injection, schedule: Q01DX009 (ip), vehicle: saline
[3] = dose: 25.0 mg/kg/injection, schedule: Q04DX003 (ip), vehicle: saline
[4] = dose: 50.0 mg/kg/injection, schedule: Q01DX009 (ip), vehicle: saline
[5] = dose: 50.0 mg/kg/injection, schedule: Q04DX003 (ip), vehicle: saline
[6] = dose: 100.0 mg/kg/injection, schedule: Q04DX003 (ip), vehicle: saline
[7] = dose: 100.0 mg/kg/injection, schedule: Q04DX003 (ip), vehicle: Klucel (hydroxypropylcellulose) (HPC)
[8] = dose: 200.0 mg/kg/injection, schedule: Q04DX003 (ip), vehicle: Klucel (hydroxypropylcellulose) (HPC)
[9] = dose: 400.0 mg/kg/injection, schedule: Q04DX003 (ip), vehicle: Klucel (hydroxypropylcellulose) (HPC)
[10] = dose: 50.0 mg/kg/injection, schedule: Q01DX001 (ip), vehicle: saline
[11] = dose: 100.0 mg/kg/injection, schedule: Q01DX001 (ip), vehicle: Klucel (hydroxypropylcellulose) (HPC)
[12] = dose: 200.0 mg/kg/injection, schedule: Q01DX001 (ip), vehicle: Klucel (hydroxypropylcellulose) (HPC)
[13] = dose: 400.0 mg/kg/injection, schedule: Q01DX001 (ip), vehicle: Klucel (hydroxypropylcellulose) (HPC)
[14] = dose: 50.0 mg/kg/injection, schedule: Q01DX001 (ip), vehicle: carboxymethylcellulose (CMC)
[15] = dose: 100.0 mg/kg/injection, schedule: Q01DX001 (ip), vehicle: carboxymethylcellulose (CMC)
[16] = dose: 200.0 mg/kg/injection, schedule: Q01DX001 (ip), vehicle: carboxymethylcellulose (CMC)
[17] = dose: 400.0 mg/kg/injection, schedule: Q01DX001 (ip), vehicle: carboxymethylcellulose (CMC)
[18] = dose: 200.0 mg/kg/injection, schedule: Q01DX009 (ip), vehicle: Klucel (hydroxypropylcellulose) (HPC)
[19] = dose: 200.0 mg/kg/injection, schedule: Q04DX003 (ip), vehicle: saline with Tween-80

CCCCCCc1nc2nc(Cl)c(Cl)nc2[nH]1
T/C (dose: 25.0 mg/kg/injection, schedule: Q01DX009 (ip), vehicle: saline with Tween-80): 93 % of control | T/C (dose: 25.0 mg/kg/injection, schedule: Q04DX003 (ip), vehicle: saline with Tween-80): 105 % of control | T/C (dose: 50.0 mg/kg/injection, schedule: Q01DX009 (ip), vehicle: saline with Tween-80): 96 % of control | T/C (dose: 50.0 mg/kg/injection, schedule: Q04DX003 (ip), vehicle: saline with Tween-80): 98 % of control | T/C (dose: 100.0 mg/kg/injection, schedule: Q01DX009 (ip), vehicle: saline with Tween-80): 106 % of control | T/C [1]: 95 % of control and 103 % of control | T/C (dose: 150.0 mg/kg/injection, schedule: Q01DX009 (ip), vehicle: saline with Tween-80): 98 % of control

O=C1OC(c2ccccc2)CC1N1CCCCC1 (centres undefined)
T/C (dose: 100.0 mg/kg/injection, schedule: Q01DX001 (ip), vehicle: saline sonified): 109 % of control | T/C (dose: 200.0 mg/kg/injection, schedule: Q01DX001 (ip), vehicle: saline sonified): 105 % of control

C/C(=N\[N+](C)(C)C)c1ccc(Br)cc1
T/C (dose: 12.5 mg/kg/injection, schedule: Q04DX003 (ip), vehicle: saline): 109 % of control | T/C [2]: 92 % of control | T/C [3]: 100 % of control | T/C [4]: 91 % of control | T/C [5]: 104 % of control | T/C (dose: 100.0 mg/kg/injection, schedule: Q01DX009 (ip), vehicle: saline): 91 % of control | T/C [6]: 102 % of control

FC1(F)SC2c3ccccc3CCC2C1(F)F (centres undefined)
T/C [7]: 96 % of control | T/C [8]: 95 % of control | T/C [9]: 102 % of control

CC(=O)Oc1ccc2c(c1)oc(=O)c1ccc(C)cc12
T/C [7]: 92 % of control | T/C [8]: 87 % of control | T/C [9]: 92 % of control

CN(C)CN(C)C
T/C (dose: 25.0 mg/kg/injection, schedule: Q01DX001 (ip), vehicle: saline): 98 % of control | T/C [2]: 89 % of control | T/C [3]: 100 % of control | T/C [10]: 102 % of control | T/C [4]: 100 % of control | T/C [5]: 100 % of control | T/C [6]: 102 % of control

OC(c1ccccc1)(c1ccccc1)C(F)(Cl)Cl
T/C [6]: 101 % of control | T/C (dose: 200.0 mg/kg/injection, schedule: Q04DX003 (ip), vehicle: saline): 94 % of control | T/C (dose: 400.0 mg/kg/injection, schedule: Q04DX003 (ip), vehicle: saline): 90 % of control

CCOC(=O)C1C2OC(=O)C(C(=O)C2CN(CCCl)CCCl)C1C1CC=C(CC2=CCC(C3C4C(=O)OC(C(CN(CCCl)CCCl)C4=O)C3C(=O)OCC)CC2)CC1 (centres undefined)
T/C (dose: 6.25 mg/kg/injection, schedule: Q01DX009 (ip), vehicle: Klucel (hydroxypropylcellulose) (HPC)): 108 % of control | T/C (dose: 12.5 mg/kg/injection, schedule: Q01DX009 (ip), vehicle: Klucel (hydroxypropylcellulose) (HPC)): 116 % of control | T/C (dose: 25.0 mg/kg/injection, schedule: Q01DX009 (ip), vehicle: Klucel (hydroxypropylcellulose) (HPC)): 158 % of control | T/C (dose: 33.25 mg/kg/injection, schedule: Q04DX003 (ip), vehicle: Klucel (hydroxypropylcellulose) (HPC)): 109 % of control | T/C (dose: 50.0 mg/kg/injection, schedule: Q01DX009 (ip), vehicle: Klucel (hydroxypropylcellulose) (HPC)): 114 % of control and 120 % of control | T/C (dose: 66.5 mg/kg/injection, schedule: Q04DX003 (ip), vehicle: Klucel (hydroxypropylcellulose) (HPC)): 109 % of control | T/C [7]: 114 % of control | T/C (dose: 133.0 mg/kg/injection, schedule: Q04DX003 (ip), vehicle: Klucel (hydroxypropylcellulose) (HPC)): 109 % of control | T/C [8]: 120 % of control | T/C (dose: 266.0 mg/kg/injection, schedule: Q04DX003 (ip), vehicle: Klucel (hydroxypropylcellulose) (HPC)): 117 % of control

CNC(=O)NCC1OC(n2cnc3c(N)ncnc32)C(O)C1O (centres undefined)
T/C [11]: 98 % of control | T/C [12]: 98 % of control | T/C [13]: 95 % of control

COc1ccc(C(N)=S)c2ccccc12
T/C [11]: 105 % of control | T/C [12]: 102 % of control | T/C [13]: 102 % of control

NC(CSS(=O)(=O)O)=NC1CCCC1
T/C (dose: 12.5 mg/kg/injection, schedule: Q01DX001 (ip), vehicle: carboxymethylcellulose (CMC)): 107 % of control | T/C (dose: 25.0 mg/kg/injection, schedule: Q01DX001 (ip), vehicle: carboxymethylcellulose (CMC)): 101 % of control | T/C [14]: 102 % of control

O=c1cc[nH]c2c(Cl)cccc12
T/C [14]: 109 % of control | T/C [15]: 109 % of control | T/C [16]: 114 % of control | T/C [17]: 110 % of control

NNC(=O)Cc1nc2ccccc2[nH]c1=O
T/C (dose: 100.0 mg/kg/injection, schedule: Q01DX009 (ip), vehicle: Klucel (hydroxypropylcellulose) (HPC)): 102 % of control | T/C [7]: 106 % of control | T/C [18]: 96 % of control | T/C [8]: 95 % of control | T/C [9]: 98 % of control

CCCN(CCC)CCCC#N
T/C [1]: 95 % of control | T/C [19]: 93 % of control

O=C(NCCc1ccccc1)c1ccc2ccccc2n1
T/C (dose: 3.12 mg/kg/injection, schedule: Q01DX009 (ip), vehicle: DMSO): 93 % of control | T/C (dose: 6.25 mg/kg/injection, schedule: Q01DX009 (ip), vehicle: DMSO): 93 % of control | T/C (dose: 12.5 mg/kg/injection, schedule: Q01DX009 (ip), vehicle: DMSO): 91 % of control | T/C (dose: 25.0 mg/kg/injection, schedule: Q01DX009 (ip), vehicle: DMSO): 90 % of control | T/C (dose: 100.0 mg/kg/injection, schedule: Q04DX003 (ip), vehicle: DMSO): 95 % of control | T/C (dose: 200.0 mg/kg/injection, schedule: Q04DX003 (ip), vehicle: DMSO): 97 % of control | T/C (dose: 400.0 mg/kg/injection, schedule: Q04DX003 (ip), vehicle: DMSO): 95 % of control

Clc1ccccc1C(c1cccc2ccccc12)n1ccnc1 (centres undefined)
T/C (dose: 25.0 mg/kg/injection, schedule: Q04DX002 (ip), vehicle: Klucel (hydroxypropylcellulose) (HPC)): 92 % of control | T/C (dose: 50.0 mg/kg/injection, schedule: Q04DX002 (ip), vehicle: Klucel (hydroxypropylcellulose) (HPC)): 100 % of control | T/C (dose: 100.0 mg/kg/injection, schedule: Q04DX002 (ip), vehicle: Klucel (hydroxypropylcellulose) (HPC)): 100 % of control | T/C [18]: 93 % of control | T/C (dose: 400.0 mg/kg/injection, schedule: Q01DX009 (ip), vehicle: Klucel (hydroxypropylcellulose) (HPC)): 86 % of control

COc1cccc(S(C)(=O)=O)c1
T/C (dose: 75.0 mg/kg/injection, schedule: Q01DX009 (ip), vehicle: saline): 105 % of control | T/C (dose: 75.0 mg/kg/injection, schedule: Q04DX003 (ip), vehicle: saline): 101 % of control | T/C (dose: 150.0 mg/kg/injection, schedule: Q01DX009 (ip), vehicle: saline): 97 % of control | T/C (dose: 150.0 mg/kg/injection, schedule: Q04DX003 (ip), vehicle: saline): 101 % of control | T/C (dose: 300.0 mg/kg/injection, schedule: Q01DX009 (ip), vehicle: saline): 92 % of control | T/C (dose: 300.0 mg/kg/injection, schedule: Q04DX003 (ip), vehicle: saline): 100 % of control

NN(C(=O)c1ccccc1)C1CCCCC1
T/C [1]: 104 % of control | T/C [19]: 96 % of control | T/C (dose: 400.0 mg/kg/injection, schedule: Q04DX003 (ip), vehicle: saline with Tween-80): 96 % of control

COc1cc(-c2ccc(Nc3ccccc3C(=O)O)c(OC)c2)ccc1N
T/C (dose: 15.0 mg/kg/injection, schedule: Q01DX Z (ip), vehicle: carboxymethylcellulose (CMC)): 102 % of control | T/C (dose: 22.0 mg/kg/injection, schedule: Q01DX Z (ip), vehicle: carboxymethylcellulose (CMC)): 117 % of control | T/C (dose: 23.0 mg/kg/injection, schedule: Q01DX Z (ip), vehicle: carboxymethylcellulose (CMC)): 112 % of control | T/C (dose: 35.0 mg/kg/injection, schedule: Q01DX Z (ip), vehicle: carboxymethylcellulose (CMC)): 111 % of control and 121 % of control | T/C [10]: 121 % of control | T/C (dose: 100.0 mg/kg/injection, schedule: Q01DX001 (ip), vehicle: saline): 115 % of control | T/C (dose: 200.0 mg/kg/injection, schedule: Q01DX001 (ip), vehicle: saline): 114 % of control

COc1cc(/C=C2\CCNC2=O)ccc1OCc1ccccc1
T/C [14]: 94 % of control | T/C [15]: 105 % of control | T/C [16]: 97 % of control | T/C [17]: 103 % of control
